Measurements taken from patent publication US20240322218A1, “DIAMONDOID SALTS AND RELATED COMPOSITIONS” (Wisconsin Alumni Research Foundation, priority 2021, published 2024).
Values belong to the compound of their own block, whether it stands above or below them.

Experiments:
[1] = literature (Lassegues et al. 2009); cited from earlier work
[2] = Cyclic voltammetry, cathodic stability / solvent protection; settings: comparable electrochemical potentials, FIGS. 6 and 7
Source text: Included representative data was acquired using a platinum counter electrode, a silver/silver nitrate (Ag/AgNO3) acetonitrile non-aqueous reference electrode, and a variety of working electrodes, which spans a wide-range of standard materials and protocols for electrochemical characterization of ionic liquids and organic plastic crystals. The hardware used was a Biologic potentiostat model SP-300.
A representative procedure using acetonitrile as a solvent and Ag as the working electrode was as follows: • 1. Measure the concentration of water in acetonitrile using Karl Fischer titration. • a. Adjust concentration to ˜1000 ppm water in acetonitrile solvent. • 2. Add diamondoid salt containing electrolyte to make a defined concentration in a 4-dram scintillation vial. • 3. Polish the working electrode using alumina slurry and a polishing pad. • 4. Polish the counter electrode and the Ag wire for the reference electrode. • 5. Clean the electrode surfaces and sonicate for ˜5 seconds. Dry the counter and Ag wire electrode. • 6. Prepare the non-aqueous reference electrode by adding new reference electrolyte consisting of 0.01M AgNO3 and 0.1M tetrabutylammonium tetrafluoroborate (TBA BF4) in acetonitrile. Add the silver wire. • 7. Assemble the electrochemical cell using a custom-printed electrochemical cap by adding the counter, reference, and working electrodes. • 8. […]

[3] = Phase characterization / miscibility with [Li][TFSI] (DSC); type: physicochemical; settings: for eutectic composition / miscibility gap onset (single phase solid to binary phase solid transition): mixtures with [Li][TFSI]
Description: The physical properties of the electrolytes, including solubility, thermal stability, phase transition temperatures, viscosity, and density were measured using a combination of accepted characterization techniques, including differential scanning calorimetry (DSC—measurement of phase transition temperatures), thermogravimetric analysis (TGA—measurement of thermal stability), particle-tracking micro-rheology (viscosity), and hydrometer (density). […] Phase transition temperatures, densities, and viscosities were seen to be dependent on the structures of diamondoid salts, as well as presence of additional “dopant” species, such as lithium salts, other diamondoid salts, or solvent molecules. Melting transitions ranged from below room temperature (below: 15° C.) to above 100° C., which spans the entire definition of an “ionic liquid,” range, as well as “organic plastic crystal” electrolyte range.
[Li][TFSI] and organic salt mixtures were melted together under vacuum at 100° C. The melting point of [DiamImMe][TFSI] and [AdImAd][TFSI] exceeded 100° C., so mixtures with those salts were melted and dried at 150° C. Heating was avoided above 150° C. as [Li][TFSI] is reported to undergo an oxidation reaction at temperatures approaching the melting point of pure [Li][TFSI]. After two days, samples were moved to a nitrogen glove box. Water and oxygen levels in the glovebox were monitored to be less than 0.5 ppm.
Differential scanning calorimetry (DSC) was performed using a TA instruments Q100. Samples were sealed in hermetic pans inside of a glovebox. [AdImMe][TFSI], [Me2AdImMe][TFSI], [DiamImMe][TFSI], and [AdImAd][TFSI] samples were equilibrated at −50° C., held at that temperature for three minutes, and then heated to 250° C. at a rate of 2° C. per minute. [C14MIm][TFSI] samples were cooled at a rate of 1° C. per minute to −50° C., held at that temperature for three minutes, and then heated to 250° C. at 2° C. per minute. […] Since no phase change was present, these faster scans were performed to look for the dissolving of [Li][TFSI].

[4] = Raman spectroscopy of the TFSI stretching mode; type: physicochemical; settings: for TFSI Raman shift: neat TFSI salt of the cation, 532 nm laser
Source text: Raman spectra were taken on a LabRAM HR Evolution Horiba microscope using a 532 nm laser and grating of 1800 gr/mm. All Raman spectra were fitted and processed using Horiba's LabSpec6 software. Samples were sealed in glass slides inside of a nitrogen glove box using paraffin wax before spectra were taken.

[5] = Static 7Li NMR linewidth (lithium mobility) of mixtures with [Li][TFSI]; type: physicochemical; settings: for Peak Width: static 7Li NMR, 0.1 mole fraction [Li][TFSI] mixtures with the TFSI salt of the cation
Description: All NMR measurements were carried out at 11.7 T using a broad band two channel 4 mm standard-bore cross-polarization magic-angle spinning (CP MAS) probe on a Bruker Avance III spectrometer with a proton radio frequency of 500.22 MHz, a ^13C radio frequency of 125.76 MHZ, a ^19F radio frequency 470.66 MHz, and a ^7Li radio frequency 194.40 MHz. The MAS rate was 10 KHz for the CP and ^19F experiments, and static for the ^7Li experiments. 4 mm zirconium rotors with Torlon caps and Viton O-rings were used. Approximately 100 mg of samples was packed into each rotor. All samples were prepared and sealed in a nitrogen glove box. The spinning axis was calibrated to the magic angle using KBr.
^7Li NMR spectra were acquired using […] the same instrumentation used for ^13C NMR. Protocols and pulse sequences were modified to enhance cross-polarization of ^7Li nuclei. Spectra shown represent 16 signal averages with a 0.05 second acquisition time and a 256 second recycle delay between scans. A pulse length of 2 μs was used to maintain a flip angle of less than π/6.
To evaluate the hypothesis that suppression of lithium coordination and incorporation of rigid molecular species can mobilize lithium, solid state NMR spectroscopy of ^7Li was performed to evaluate changes in lithium linewidths as a means of measuring changes in lithium mobility. Static ^7Li NMR spectra indicate the degree of chemical shift anisotropy that the lithium atoms experienced in each salt mixture. […] If the magnetic moment is dependent on the crystallographic orientation, then the lithium is more heavily interacting with the surrounding atoms.

melting point: 230 to 234.1 °C
Compound: Cn1cc[n+](C23CC4CC(CC(C4)C2)C3)c1.[Br-]

Compound: 1-ethyl-3-methylimidazolium bis(trifluoromethylsulfonyl)imide
phase transition via Raman spectroscopy [1]: 0.2 mole fraction [Li][TFSI]
cathodic stability [2]: pronounced cathodic decomposition

Compound: [Br-].c1c[n+](C23CC4CC(CC(C4)C2)C3)cn1C12CC3CC(CC(C3)C1)C2 [Compound 4, 1,3-bis(adamantan-1-yl)imidazolium bromide]
melting point: 327.5 to 329.9 °C

miscibility with lithium bis(trifluorosulfonyl)imide ([3]; lithium salt in the diamondoid salt): up to 50 mol %
eutectic composition [3]: ~0.5 mol fraction [Li][TFSI]
miscibility gap onset (single phase solid to binary phase solid transition) [3]: 0.2 mol fraction [Li][TFSI]
TFSI Raman shift [4]: 743 cm⁻¹
Peak Width [5]: 1634 Hz
Compound: Cn1cc[n+](C23CC4C5CC6CC4C(C2)C(C6)C5C3)c1 [Compound 5, 3-(diamantan-4-yl)-1-methylimidazolium bis(trifluoromethane)sulfonimide]

Compound: O=S(=O)([N-]S(=O)(=O)C(F)(F)F)C(F)(F)F.c1c[n+](C23CC4CC(CC(C4)C2)C3)cn1C12CC3CC(CC(C3)C1)C2 [[AdImAd][TFSI]]
change of TFSI Raman spectrum in equimolar mixture with [Li][TFSI] [4]: essentially eliminated
TFSI Raman shift [4]: ca. 740 cm^−1
TFSI Raman shift ([4]; listed as AdImAd): 740 cm⁻¹
Peak Width [5]: 3159 Hz

Compound: C[n+]1ccn(C23CC4CC(CC(C4)C2)C3)c1.O=S(=O)([N-]S(=O)(=O)C(F)(F)F)C(F)(F)F [[AdImMe][TFSI]]
eutectic composition [3]: ~0.5 mol fraction [Li][TFSI]
miscibility gap onset (single phase solid to binary phase solid transition) [3]: 0.2 mol fraction [Li][TFSI]
change of TFSI Raman spectrum in equimolar mixture with [Li][TFSI] [4]: no statistical change
TFSI Raman shift [4]: ca. 745 cm^−1
TFSI Raman shift ([4]; listed as AdImMe): 745 cm⁻¹
peak thinner than 0.1 mole fraction [Li][TFSI] in N-ethyl-N-methylpyrrolidinium bis(fluorosulfonyl)imide mixture ([5]; 0.1 mole fraction [Li][TFSI] mixture): 10%
Peak Width [5]: 454 Hz

Compound: CCCCCCCCCCn1cc[n+](C)c1.O=S(=O)([N-]S(=O)(=O)C(F)(F)F)C(F)(F)F [[C10MIm][TFSI], 1-decyl-3-methylimidazolium TFSI, reference compound]
TFSI Raman shift [4]: 742 cm⁻¹
TFSI Raman shift ([4]; listed as [C10ImMe][TFSI]): ca. 742 cm^−1

Compound: CCCCCCCCCCCCCCn1cc[n+](C)c1.O=S(=O)([N-]S(=O)(=O)C(F)(F)F)C(F)(F)F [[C14MIm][TFSI], 1-tetradecyl-3-methylimidazolium TFSI, reference compound]
TFSI Raman shift [4]: 742 cm⁻¹
TFSI Raman shift ([4]; listed as [C14ImMe][TFSI]): ca. 742 cm^−1

Compound: O=S(=O)([N-]S(=O)(=O)C(F)(F)F)C(F)(F)F.[Li+] [[Li][TFSI], lithium bis(trifluorosulfonyl)imide, reference compound]
TFSI Raman shift [4]: ca. 747 cm^−1
TFSI Raman shift ([4]; listed as Li): 747 cm⁻¹

Compound: C[n+]1ccn(C23CC4CC(C)(CC(C)(C4)C2)C3)c1.O=S(=O)([N-]S(=O)(=O)C(F)(F)F)C(F)(F)F [[Me2AdImMe][TFSI]]
TFSI Raman shift [4]: 741 cm⁻¹
